According to US4241083A, “Germicidal composition for agriculture and horticulture” (priority 1978, dated 1980):

What was measured:
Erysiphe cichoracearum = assay: Prevention effect for powdery mildew on eggplants (Ex. 23); type: in vivo; conditions: emulsion; for Germicidal damage to seedlings: eggplant seedlings; for Percentage of leaf area with disease spots / Percentage of leaves attacked with the disease / Prevention value per leaf (Perfect prevention = 100): third or ninth days, read fifteenth day after inoculation
Experimental: The emulsion was prepared by blending 25 g of ethyl 2-(2-hydroxyethylamino)-3-benzoylpropionate, 25 ml of isopropanol, 3 g of Demol T (formalin condensed naphthalenesulfonate available from Kao Sekken Inc.), 2 g of Emal 10 (sodium lauryl sulphate available from Kao Sekken Inc.) and 45 g of water.
The prevention effect of the emulsion prepared above for powdery mildew on eggplants caused by Erysiphe cichoracearum was examined in the following manner.
Eggplant seedlings of Shinkitsushin variety planted in sections in two rows of three were inoculated with the above germ by brushing on spores from other eggplant leaf attacked with the powdery mildew.
An aqueous solution of ethyl 2-(2-hydroxyethylamino)-3-benzoylpropionate (2000 ppm and 2500 ppm) was sprayed on the test plant on the third or ninth days after the seedlings were inoculated with the germ by means of glass sprayer.
(§1) The leaf area on which powdery mildew spots appeared was measured on the fifteenth day after the seedlings were inoculated with the germ. The spotted area is expressed as a prevention value.

[1] = Toxicity, LD50 for a mouse; conditions: in vivo
Toxicity, LD50 for a rat = conditions: in vivo
Sphaerotheca fuliginea = assay: Prevention effect for powdery mildew on cucumbers (Ex. 20, 21); type: in vivo; conditions: Table 6; for Germicidal damage to seedlings: cucumber seedlings; for Percentage of leaf area with disease spots / Percentage of leaves attacked with the disease / Prevention value per leaf (Perfect prevention = 100): third and ninth days, read fifteenth day after inoculation
Experimental: The prevention effect for powdery mildew on cucumbers caused by Sphaerotheca fuliginea was examined in the following manner.
Cucumber seedlings (bifoliate age) of Tokiwa Hikari No. 3 (p type) variety planted in sections of two rows of three were inoculated with the above germ by brushing on spores from a cucumber leaf attacked with powdery mildew. […]
The leaf area on which powdery mildew spots appeared was measured on the fifteenth day after the seedlings were inoculated with the germ. The spotted area is expresses as a prevention value.
The same experiment as Example 20 was carried out except that isopropyl 2-(2-hydroxyethylamino)-3-benzoyl-propionate hydrochloride was used instead of ethyl 2-(2-hydroxyethylamino)-3-benzoylpropionate hydrochloride.

Valsa ceratosperma = assay: Length of disease spots on cut apple branches immersed in germicide before inoculation (Ex. 16); type: in vivo; conditions: 25° C.
Experimental: Branches of Delicious apple (branch diameter: about 1 cm. thick) grown for 1-2 years were cut to 10 cm. length. The cut branches were dried in a low temperature chamber (3° C.) until the water content of the cut branches became 50%. The dried cut branches were immersed in an aqueous solution of ethyl 2-(2-hydroxyethylamino)-3-benzoylpropionate hydrochloride (500 ppm, 1000 ppm and 2500 ppm) for one minute and then dried.
Each cut branch was end bored by a white heated 8 mm diameter cork borer. Valsa ceratosperma, previously cultured for four days on a potato dextrose-agar culture medium, was introduced into the branch by inoculating the branch with the Valsa ceratosperma containing culture by means of the sterilized cork borer. The branches prepared in this way were placed on wet filter paper spread in a polyethylene tray. The tray was inserted into a polyethylene bag which was sealed and then the bag was put into a thermostat (25° C.) for various controlled times.
After removal from the thermostat, the length of disease spots on each branch was measured.
A similar experiment for comparison was carried out using Benomyl, i.e. methyl-1-(buthylcarbamoyl)-2-benzimidazole carbamate as the germicide. The results of the comparative experiment and also a control experiment, in which the dried cut branches were not immersed in germicide (blank), are also shown in Table 2.

apple canker = conditions: cited from earlier work
Sphaerotheca humuli = assay: Prevention effect for powdery mildew on strawberries (Ex. 22); type: in vivo; conditions: for Germicidal damage to seedlings: strawberry seedlings; for Percentage of leaf area with disease spots / Percentage of leaves attacked with the disease / Prevention value per leaf (Perfect prevention = 100): third and ninth days, read fifteenth day after inoculation
Source text: The prevention effect for powdery mildew on strawberries caused by Sphaerotheca humuli was examined in the following manner.
Strawberry seedlings (3-4 leaves) of Danar variety dug up and planted in a pot in two row of three without drying the roots was inoculated with the above germ by brushing on the spores from a strawberry leaves attacked with powdery mildew.
An aqueous solution of sec-butyl 2-(2-hydroxyethylamino)-3-benzoylpropionate hydrochloride was sprayed on the test plant on the third and ninth days after the seedlings were inoculated with the germ.
as §1

SMILES: CCOC(=O)C(CC(=O)c1ccccc1)NCCO (stereo not drawn) [ethyl 2-(2-hydroxyethylamino)-3-benzoylpropionate]
- Germicidal damage to seedlings (Erysiphe cichoracearum; 2000 ppm): none
- Percentage of leaf area with disease spots (Erysiphe cichoracearum; 2000 ppm): 0%
- Percentage of leaves attacked with the disease (Erysiphe cichoracearum; 2000 ppm): 0%
- Prevention value per leaf (Perfect prevention = 100) (Erysiphe cichoracearum; 2000 ppm): 100
- Germicidal damage to seedlings (Erysiphe cichoracearum; 2500 ppm): none
- Percentage of leaf area with disease spots (Erysiphe cichoracearum; 2500 ppm): 0%
- Percentage of leaves attacked with the disease (Erysiphe cichoracearum; 2500 ppm): 0%
- Prevention value per leaf (Perfect prevention = 100) (Erysiphe cichoracearum; 2500 ppm): 100
- LD50 [1]: 7600 mg/kg
- LD50 (Toxicity, LD50 for a rat): 4790 mg/kg

SMILES: CC(C)OC(=O)C(CC(=O)c1ccccc1)NCCO.Cl (stereo not drawn) [isopropyl 2-(2-hydroxyethylamino)-3-benzoyl-propionate hydrochloride]
- Germicidal damage to seedlings (Sphaerotheca fuliginea; 1500 ppm): none
- Percentage of leaf area with disease spots (Sphaerotheca fuliginea; 1500 ppm): 8.9%
- Percentage of leaves attacked with the disease (Sphaerotheca fuliginea; 1500 ppm): 55.6%
- Prevention value per leaf (Perfect prevention = 100) (Sphaerotheca fuliginea; 1500 ppm): 88.5
- Germicidal damage to seedlings (Sphaerotheca fuliginea; 2000 ppm): none
- Percentage of leaf area with disease spots (Sphaerotheca fuliginea; 2000 ppm): 0%
- Percentage of leaves attacked with the disease (Sphaerotheca fuliginea; 2000 ppm): 0%
- Prevention value per leaf (Perfect prevention = 100) (Sphaerotheca fuliginea; 2000 ppm): 100
- Germicidal damage to seedlings (Sphaerotheca fuliginea; 2500 ppm): none
- Percentage of leaf area with disease spots (Sphaerotheca fuliginea; 2500 ppm): 0%
- Percentage of leaves attacked with the disease (Sphaerotheca fuliginea; 2500 ppm): 0%
- Prevention value per leaf (Perfect prevention = 100) (Sphaerotheca fuliginea; 2500 ppm): 100

SMILES: CCCCNC(=O)n1c(NC(=O)OC)nc2ccccc21 [methyl-1-(buthylcarbamoyl)-2-benzimidazole carbamate, reference compound]
- Length of disease spot (Valsa ceratosperma; 500 ppm, after 3 days): 1.0 mm
- Length of disease spot (Valsa ceratosperma; 500 ppm, after 5 days): 1.0 mm
- Length of disease spot (Valsa ceratosperma; 500 ppm, after 7 days): 1.8 mm
- Length of disease spot (Valsa ceratosperma; 1000 ppm, after 3 days): 0.5 mm
- Length of disease spot (Valsa ceratosperma; 1000 ppm, after 5 days): 0.5 mm
- Length of disease spot (Valsa ceratosperma; 1000 ppm, after 7 days): 1.0 mm
- Length of disease spot (Valsa ceratosperma; 2500 ppm, after 3 days): 0 mm
- Length of disease spot (Valsa ceratosperma; 2500 ppm, after 5 days): 0 mm
- Length of disease spot (Valsa ceratosperma; 2500 ppm, after 7 days): 0 mm
- effect after the canker attacks (apple canker): can only weakly prevent the progress of the disease

SMILES: CCC(C)OC(=O)C(CC(=O)c1ccccc1)NCCO.Cl (stereo not drawn) [sec-butyl 2-(2-hydroxyethylamino)-3-benzoylpropionate hydrochloride]
- Germicidal damage to seedlings (Sphaerotheca humuli; 1000 ppm): none
- Percentage of leaf area with disease spots (Sphaerotheca humuli; 1000 ppm): 46.1%
- Percentage of leaves attacked with the disease (Sphaerotheca humuli; 1000 ppm): 83.3%
- Prevention value per leaf (Perfect prevention = 100) (Sphaerotheca humuli; 1000 ppm): 40.4
- Germicidal damage to seedlings (Sphaerotheca humuli; 2000 ppm): none
- Percentage of leaf area with disease spots (Sphaerotheca humuli; 2000 ppm): 0%
- Percentage of leaves attacked with the disease (Sphaerotheca humuli; 2000 ppm): 0%
- Prevention value per leaf (Perfect prevention = 100) (Sphaerotheca humuli; 2000 ppm): 100
- Germicidal damage to seedlings (Sphaerotheca humuli; 3000 ppm): none
- Percentage of leaf area with disease spots (Sphaerotheca humuli; 3000 ppm): 0%
- Percentage of leaves attacked with the disease (Sphaerotheca humuli; 3000 ppm): 0%
- Prevention value per leaf (Perfect prevention = 100) (Sphaerotheca humuli; 3000 ppm): 100

SMILES: COC(=O)NC(=S)Nc1ccccc1NC(=S)NC(=O)OC [thiophanate methyl, 1,2-bis(3-methylcarbonyl-2-thioureido)]
- effect after the canker attacks (apple canker): can only weakly prevent the progress of the disease
